Test results: patent publication US12077503B2, “Substituted cyclic amides and their use as herbicides” (FMC CORPORATION, priority 2015, dated 2024)

Columns and labels:
Assay in all cases: Test C preemergence
Format in all cases: in vivo
[1] = test system: Galium (catchweed bedstraw, Galium aparine); conditions: for Plant response rating, Galium: scale 0 to 100, 0 no effect, 100 complete control
Procedure, shortened: (§1)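 Visual 0 (no effect) to 100 (complete control) ratings versus controls, taken 13–15 d after treatment in the greenhouse; dash means no result. Compounds in a surfactant-containing non-phytotoxic solvent blend were applied preemergence to seeds in loam-sand soil or postemergence to 1- to 4-leaf plants (2–18 cm) in peat-based medium.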

[2] = test system: barnyardgrass (Echinochloa crus-galli); conditions: for Plant response rating, Barnyardgrass: scale 0 to 100, 0 no effect, 100 complete control
Procedure, shortened: as §1

[3] = test system: blackgrass (Alopecurus myosuroides); conditions: for Plant response rating, Blackgrass: scale 0 to 100, 0 no effect, 100 complete control
Procedure, shortened: as §1

corn (Zea mays) = conditions: for Plant response rating, Corn: scale 0 to 100, 0 no effect, 100 complete control
Procedure, shortened: as §1

[4] = test system: crabgrass, large (large crabgrass, Digitaria sanguinalis); conditions: for Plant response rating, Crabgrass, Large: scale 0 to 100, 0 no effect, 100 complete control
Procedure, shortened: as §1

[5] = test system: foxtail, giant (giant foxtail, Setaria faberii); conditions: for Plant response rating, Foxtail, Giant: scale 0 to 100, 0 no effect, 100 complete control
Procedure, shortened: as §1

[6] = test system: johnsongrass (Sorghum halepense); conditions: for Plant response rating, Johnsongrass: scale 0 to 100, 0 no effect, 100 complete control
Procedure, shortened: as §1

[7] = test system: lambsquarters (Chenopodium album); conditions: for Plant response rating, Lambsquarters: scale 0 to 100, 0 no effect, 100 complete control
Procedure, shortened: as §1

[8] = test system: morningglory (Ipomoea coccinea); conditions: for Plant response rating, Morningglory: scale 0 to 100, 0 no effect, 100 complete control
Procedure, shortened: as §1

[9] = test system: nutsedge, yellow (yellow nutsedge, Cyperus esculentus); conditions: for Plant response rating, Nutsedge, Yellow: scale 0 to 100, 0 no effect, 100 complete control
Procedure, shortened: as §1

[10] = test system: oilseed rape (Brassica napus); conditions: for Plant response rating, Oilseed Rape: scale 0 to 100, 0 no effect, 100 complete control
Procedure, shortened: as §1

[11] = test system: pigweed (Amaranthus retroflexus); conditions: for Plant response rating, Pigweed: scale 0 to 100, 0 no effect, 100 complete control
Procedure, shortened: as §1

[12] = test system: ragweed (common ragweed, Ambrosia elatior); conditions: for Plant response rating, Ragweed: scale 0 to 100, 0 no effect, 100 complete control
Procedure, shortened: as §1

[13] = test system: ryegrass, Italian (Italian ryegrass, Lolium multiflorum); conditions: for Plant response rating, Ryegrass, Italian: scale 0 to 100, 0 no effect, 100 complete control
Procedure, shortened: as §1

soybean (Glycine max) = conditions: for Plant response rating, Soybean: scale 0 to 100, 0 no effect, 100 complete control
Procedure, shortened: as §1

[14] = test system: velvetleaf (Abutilon theophrasti); conditions: for Plant response rating, Velvetleaf: scale 0 to 100, 0 no effect, 100 complete control
Procedure, shortened: as §1

[15] = test system: waterhemp (common waterhemp, Amaranthus rudis); conditions: for Plant response rating, Waterhemp: scale 0 to 100, 0 no effect, 100 complete control
Procedure, shortened: as §1

[16] = test system: wheat (winter wheat, Triticum aestivum); conditions: for Plant response rating, Wheat: scale 0 to 100, 0 no effect, 100 complete control
Procedure, shortened: as §1

[17] = 31 g ai/ha, 0 is no effect, 100 is complete control

`Cc1ccc(C2CN(C)C(=O)C2C(=O)Nc2ccccc2S(C)(=O)=O)cc1` (stereo not drawn) [Compound 663] was tested, and the “Plant response rating (scale of 0 to 100), Galium” value [1, 17] was 90, the “Plant response rating, Galium” value ([1]; 62 g ai/ha) was 90 and the “Plant response rating, Galium” value ([1]; 125 g ai/ha) was 85. For the same compound, the “Plant response rating, Galium” value ([1]; 250 g ai/ha) was 90, the “Plant response rating (scale of 0 to 100), Barnyardgrass” value [2, 17] was 95 and the “Plant response rating, Barnyardgrass” value ([2]; 62 g ai/ha) was 90. For the same compound, the “Plant response rating, Barnyardgrass” value ([2]; 125 g ai/ha) was 98, the “Plant response rating, Barnyardgrass” value ([2]; 250 g ai/ha) was 100 and the “Plant response rating (scale of 0 to 100), Blackgrass” value [3, 17] was 20. For the same compound, the “Plant response rating, Blackgrass” value ([3]; 62 g ai/ha) was 60, the “Plant response rating, Blackgrass” value ([3]; 125 g ai/ha) was 85 and the “Plant response rating, Blackgrass” value ([3]; 250 g ai/ha) was 95. For the same compound, the “Plant response rating (scale of 0 to 100), Corn” value (corn (Zea mays); [17]) was 0, the “Plant response rating, Corn” value (corn (Zea mays); 62 g ai/ha) was 10 and the “Plant response rating, Corn” value (corn (Zea mays); 125 g ai/ha) was 20. For the same compound, the “Plant response rating, Corn” value (corn (Zea mays); 250 g ai/ha) was 60, the “Plant response rating (scale of 0 to 100), Crabgrass, Large” value [4, 17] was 95 and the “Plant response rating, Crabgrass, Large” value ([4]; 62 g ai/ha) was 98. The “Plant response rating, Crabgrass, Large” value ([4]; 125 g ai/ha) was 100, the “Plant response rating, Crabgrass, Large” value ([4]; 250 g ai/ha) was 100 and the “Plant response rating (scale of 0 to 100), Foxtail, Giant” value [5, 17] was 95. The “Plant response rating, Foxtail, Giant” value ([5]; 62 g ai/ha) was 95, the “Plant response rating, Foxtail, Giant” value ([5]; 125 g ai/ha) was 98 and the “Plant response rating, Foxtail, Giant” value ([5]; 250 g ai/ha) was 100. The “Plant response rating (scale of 0 to 100), Johnsongrass” value [6, 17] was 0, the “Plant response rating, Johnsongrass” value ([6]; 62 g ai/ha) was 10 and the “Plant response rating, Johnsongrass” value ([6]; 125 g ai/ha) was 20. The “Plant response rating, Johnsongrass” value ([6]; 250 g ai/ha) was 40, the “Plant response rating (scale of 0 to 100), Lambsquarters” value [7, 17] was 70 and the “Plant response rating, Lambsquarters” value ([7]; 62 g ai/ha) was 60. For the same compound, the “Plant response rating, Lambsquarters” value ([7]; 125 g ai/ha) was 65, the “Plant response rating, Lambsquarters” value ([7]; 250 g ai/ha) was 85 and the “Plant response rating (scale of 0 to 100), Morningglory” value [8, 17] was 0. For the same compound, the “Plant response rating, Morningglory” value ([8]; 62 g ai/ha) was 35, the “Plant response rating, Morningglory” value ([8]; 125 g ai/ha) was 30 and the “Plant response rating, Morningglory” value ([8]; 250 g ai/ha) was 40. For the same compound, the “Plant response rating (scale of 0 to 100), Nutsedge, Yellow” value [9, 17] was 0, the “Plant response rating, Nutsedge, Yellow” value ([9]; 62 g ai/ha) was 0 and the “Plant response rating, Nutsedge, Yellow” value ([9]; 125 g ai/ha) was 0. For the same compound, the “Plant response rating, Nutsedge, Yellow” value ([9]; 250 g ai/ha) was 50, the “Plant response rating (scale of 0 to 100), Oilseed Rape” value [10, 17] was 30 and the “Plant response rating, Oilseed Rape” value ([10]; 62 g ai/ha) was 20. For the same compound, the “Plant response rating, Oilseed Rape” value ([10]; 125 g ai/ha) was 65, the “Plant response rating, Oilseed Rape” value ([10]; 250 g ai/ha) was 80 and the “Plant response rating (scale of 0 to 100), Pigweed” value [11, 17] was 70. For the same compound, the “Plant response rating, Pigweed” value ([11]; 62 g ai/ha) was 60, the “Plant response rating, Pigweed” value ([11]; 125 g ai/ha) was 70 and the “Plant response rating, Pigweed” value ([11]; 250 g ai/ha) was 75. The “Plant response rating (scale of 0 to 100), Ragweed” value [12, 17] was 50, the “Plant response rating, Ragweed” value ([12]; 62 g ai/ha) was 55 and the “Plant response rating, Ragweed” value ([12]; 125 g ai/ha) was 70. The “Plant response rating, Ragweed” value ([12]; 250 g ai/ha) was 85, the “Plant response rating (scale of 0 to 100), Ryegrass, Italian” value [13, 17] was 10 and the “Plant response rating, Ryegrass, Italian” value ([13]; 62 g ai/ha) was 70. For the same compound, the “Plant response rating, Ryegrass, Italian” value ([13]; 125 g ai/ha) was 50, the “Plant response rating, Ryegrass, Italian” value ([13]; 250 g ai/ha) was 75 and the “Plant response rating (scale of 0 to 100), Soybean” value (soybean (Glycine max); [17]) was 0. The “Plant response rating, Soybean” value (soybean (Glycine max); 62 g ai/ha) was 10, the “Plant response rating, Soybean” value (soybean (Glycine max); 125 g ai/ha) was 0 and the “Plant response rating, Soybean” value (soybean (Glycine max); 250 g ai/ha) was 0. The “Plant response rating (scale of 0 to 100), Velvetleaf” value [14, 17] was 5, the “Plant response rating, Velvetleaf” value ([14]; 62 g ai/ha) was 15 and the “Plant response rating, Velvetleaf” value ([14]; 125 g ai/ha) was 30. The “Plant response rating, Velvetleaf” value ([14]; 250 g ai/ha) was 55, the “Plant response rating (scale of 0 to 100), Waterhemp” value [15, 17] was 50 and the “Plant response rating, Waterhemp” value ([15]; 62 g ai/ha) was 60. For the same compound, the “Plant response rating, Waterhemp” value ([15]; 125 g ai/ha) was 85, the “Plant response rating, Waterhemp” value ([15]; 250 g ai/ha) was 90 and the “Plant response rating (scale of 0 to 100), Wheat” value [16, 17] was 0. The “Plant response rating, Wheat” value ([16]; 62 g ai/ha) was 50, the “Plant response rating, Wheat” value ([16]; 125 g ai/ha) was 55 and the “Plant response rating, Wheat” value ([16]; 250 g ai/ha) was 90.
